The subject of assay [1] is pupil. The assay can be described thus: Pupil diameter after intracameral injection in flurbiprofen-pretreated sedated cats (Example 3). The class given is in vivo, domestic cats. Conditions: cat. As to the method:
Fifteen male and female domestic cats were treated topically with 0.03% flurbiprofen (in both eyes) every 1/2 hours for two hours to inhibit endogenous thromboxane synthesis. The cats were sedated with 0.5 to 0.75ml of Rompum (20mg/ml) by intramuscular injection. […] The pupil diameters of both eyes were measured with an optistick and recorded. The right eye of each cat was injected intracamerally with one concentration of thromboxane B₂ ranging from a high of 500ng (10ul) to a low of 10ng (10ul). The contralateral eye was injected with an equal volume of the vehicle: saline. The pupil diameters were measured five and ten minutes after the injections. The cats were allowed to regain consciousness while in the laboratory.
Increasing concentrations of TXB2 led to greater constriction of the pupil (miosis). Maximum constriction of the pupil occurred at a dose of 500ng. The ED₅₀ was 70ng. Refer to Figure 2. […] The filled circles are the mean pupil diameters of the TXB2 treated eyes. The pupil diameters of the vehicle treated eyes are shown by the open circles.

Assay [2] deals with pupil. The assay can be described thus: Pupil diameter after sequential intracameral injections in a sedated rabbit (Example 1). The class given is in vivo, New Zealand albino rabbit. As to conditions: for Pupil Diameter: 5 min after injection. The method, then:
One New Zealand albino rabbit (2-4Kg) was sedated with an intramuscular injection of a 1:1 mixture of ketamine (Vetalar, Parke-Davis and xylazine (Rompum, Haver-Lockhart). The pupil diameters of both eyes were measured under standard room lighting with an optistick and recorded. The right eye was injected intracamerally with 100ng of thromboxane B₂ (12ul). The contralateral eye was injected with an equal volume of the vehicle solution, 0.05% BSA (Bovine Serum Albumin) in 0.01N CH₃COOH. Hamilton syringes with 30 gauge needles were used for the injection. Five minutes later the pupil diameters of both eyes were measured and recorded. Sequential injections of thromboxane B₂ (Sigma) were made into the right eye and an equal volume of vehicle into the left. Five minutes after each injection the pupil diameters were measured and recorded. A total of three injections of thromboxane B₂ (TXB2) were administered to the right eye; 100ng, 1ug, 10ug (12ul). After the last injection of TXB2, carbachol, 200ng (lul) was administered to both eyes, intracamerally, and the pupil diameters were measured after five minutes.

Assay [3] has as its system pupil. The assay can be described thus: Pupil diameter after intracameral injection in flurbiprofen-pretreated sedated rabbits (Example 2). In kind it is in vivo, New Zealand albino rabbits. The method, then: Seven New Zealand albino rabbits were treated, topically, with 0.03% flurbiprofen (Ocufen, Allergan) every 1/2 hour for two hours to inhibit endogenous synthesis of thromboxane. Following flurbiprofen treatment the rabbits were sedated with a 1:1 mixture of Ketamine and Rompum and the pupil diameters of both eyes were measured and recorded as before. 50ug (6ul) of TXB2 was injected intracamerally into the right eye of each rabbit and an equal volume of vehicle was administered to the left eyes. The pupil diameters were measured five minutes following the injections. This does of TXB2 was chosen because it is 1000 times the concentration of TXB2 found in clotting blood in rabbits (Ali and Mohammed, 1986). Carbachol 200ng (1ul) was injected into both eyes and the pupil diameters recorded after a five minute and a ten minute duration.
Refer to Figure 1. Next, both eyes were injected with 200ng (1ul) of carbachol.

Assay [4] relates to pupil. The assay can be described thus: Pupil diameter after topical drops in awake monkeys (Example 4). As to conditions: Cebus monkeys, total dose per eye 2.5 micrograms to 1 mg. In kind it is in vivo, Cebus apella monkeys. The method, then:
Eight Cebus apella monkeys were treated topically with thromboxane B₂ in one eye and normal saline in the contralateral eye. The monkeys were awake and alert and seated in primate chairs for the duration of the experiment. The thromboxane B₂ concentrations used were 0.625ug, 1.25ug, 6.25ug, 12.5ug, 62.5ug, 125.0ug and 250ug per drop. A 50ul drop was administered following the baseline pupil diameter measurement. Three more drops were given at 15 minute intervals. Total dose per eye after 4 drops ranged between 2.5 micrograms and 1 mg. Pupil diameter was measured just before each administration. The last measurement was taken at 60 minutes.
In the eight Cebus monkeys with TXB2-treated eyes, the pupil diameters decreased 0.75 to […] at 30 minutes.
The range of doses used probably represented the upper end of the dose-response curve. The 0.75 to […] pupil constriction represents a significant response in the small Cebus eye.

Structures are written as SMILES.

As to `CCCCC[C@H](O)/C=C/[C@H]1OC(O)C[C@H](O)[C@@H]1C/C=C\CCCC(=O)O` (some centres unmarked) [TXB2, thromboxane B₂], the “dose at which maximum constriction of the pupil occurred” value with pupil [1] (intracameral, doses 10ng to 500ng (10ul)) is listed as 500 ng. In addition, the “effect on pupil diameter” value with pupil [1] (intracameral, doses 10ng to 500ng, measured 5 and 10 min after injection) is on record as “dose-related effect on pupil diameter”. Also, the ED₅₀ with pupil [1] (pupil constriction (miosis), intracameral doses 10ng to 500ng (10ul), flurbiprofen pretreatment) amounted to 70 ng. The Pupil Diameter amounted to 5 mm with pupil [2] (rabbit #8394, eye OD, TXB2 100ng intracameral (12ul), baseline 6.0); 5 mm in the assay on pupil [2] (rabbit #8394, eye OD, second sequential TXB2 dose 1ug intracameral); 5.5 mm in the assay on pupil [2] (rabbit #8394, eye OD, third sequential TXB2 dose 10ug intracameral). Also, the “changes in pupil diameter” value with pupil [2] (rabbit #8394, three sequential intracameral doses 100ng, 1ug and 10ug) was “no significant changes in pupil diameter”. In addition, the “ability of the pupillary sphincter to contract when stimulated by carbachol” value in the assay on pupil [3] (rabbits, topical 0.03% flurbiprofen pretreatment, TXB2 50ug intracameral, then carbachol 200ng) was “nor TXB2 administration affected the ability of the pupillary sphincter to contract”. Moreover, the “pupil diameters versus vehicle eyes” value with pupil [3] (seven rabbits, 0.03% flurbiprofen pretreatment, 50ug (6ul) intracameral, 5 min after injection) was “no different from those eyes receiving vehicle”. The “dose-response relationship of pupil constriction” value in the assay with pupil [4] is listed as “no dose-response relationship was observed”.

In the case of `C[N+](C)(C)CCOC(N)=O` [Carbachol, carbachol, reference compound], the pupil constriction entry with pupil [2] (rabbit #8394, carbachol 200ng (1ul) intracameral, both eyes) is “constricted an expected amount”. In addition, the Pupil Diameter in the assay with pupil [2] (rabbit #8394, eye OD (previously TXB2 treated), carbachol 200ng intracameral) was 3 mm; in the assay on pupil [2] (rabbit #8394, eye OS (previously vehicle treated), carbachol 200ng intracameral) it was 1.5 mm; with pupil [3] (carbachol 200ng (1ul) injected into both eyes after TXB2 or vehicle, measured after 5 and 10 min) it was “decreased significantly and to the same degree in both eyes”.
